One experiment concerns the target T1, RORγt (Homo sapiens, UniProt P51449).
T1 construct: The resulting GAL4-RORγt-LBD fusion construct was placed under the control of a constitutive cytomegalovirus (CMV) promoter; expressed in transfected cells; host or cells: HEK293
T1 sequence (P51449 269-508 limits assumed): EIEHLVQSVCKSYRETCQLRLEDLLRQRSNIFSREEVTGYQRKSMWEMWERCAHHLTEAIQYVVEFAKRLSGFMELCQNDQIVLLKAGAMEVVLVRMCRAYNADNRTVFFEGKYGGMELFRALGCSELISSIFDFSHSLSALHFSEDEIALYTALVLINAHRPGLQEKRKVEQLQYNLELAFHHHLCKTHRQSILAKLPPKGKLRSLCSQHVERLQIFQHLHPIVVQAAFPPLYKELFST
Put plainly: RORγ Reporter Assay (GAL4-UAS luciferase reporter in HEK293 cells). It is filed as cell-based. The conditions noted are these: benzoxazines, Table 9; HEK cells. As for the experimental part:
Inhibition of RORγt in cells was determined using a GAL4-UAS reporter system in HEK293 cells employing a luciferase readout. The RORγt DNA binding domain (DBD) was replaced with the heterologous yeast GAL4 DBD using standard recombinant DNA methods. The resulting GAL4-RORγt-LBD fusion construct was placed under the control of a constitutive cytomegalovirus (CMV) promoter by cloning it into the CMV-driven mammalian expression vector pcDNA3.1+− (Promega Corporation, Madison, Wis.).
A transcriptional reporter expression construct was used to monitor GAL4-RORγ activity, which contained five copies of the GAL4 binding site enhancer (UAS) controlling expression of a firefly luciferase reporter. This construct, pGL4.31, is commercially available from Promega Corporation, Madison Wis. Both expression constructs were transfected in bulk into HEK-293 cells using standard lipid-based transfection techniques, which allowed the GAL4 RORγ-LBD fusion protein to drive expression of the luciferase reporter. Control transfections were performed with an empty pCDN3.1+ vector.
The next day, cells were plated into 384 well plates, test compound was added, and the plates were incubated overnight. […] Promega firefly assays kits were used to stabilize the luciferase signal, and the intensity of the luciferase signal was measured using an EnVision Multilabel Plate Reader (Perkin Elmer, Waltham, Mass.).
HEK 293 cells are transfected with GAL4-NR construct (CMV:NR-LBD in pcDNA3.1neo) and the pGL4.31 GAL4-luciferase reporter construct (Promega). For a background control, use empty pcDNA3.1neo and pGL4.31. Transfection protocol is for a single T75 flask performed with Minis Trans-It 293 reagent. A 60 μL aliquot of Trans-IT reagent at room temperature is added drop wise to 1.5 mL of Optimem (Invitrogen). The resulting solution is mixed by inversion and incubated for 5-20 minutes at room temperature. This reagent mixture is added to 10 μg of DNA (5 μg of each expression vector used at a concentration of 1 mg/mL). The solution is mixed by inversion and incubated at room temperature for 20 minutes.
While the Trans-IT reagent and DNA are incubating, harvest HEK-293 cells. Remove media from flasks via aspiration and add enough TrypLE Express (stable Trypsin-like reagent, Invitrogen) to cover the bottom of the flask. The mixture is incubated at room temperature until the cells are visibly loose in the flask (approximately 2-5 minutes). Add an equal volume of complete growth media, and then pipette to achieve a single cell suspension. Spin down 1×10^7 cells and re-suspend the cells in 10 mL of complete growth media (DMEM high glucose/10% dialyzed FBS/pen/strep; Invitrogen). The cells and transfection mixture are added to one T75 flask. The contents of the T75 flax are mixed and incubated overnight at 37° C. and 5% CO2.
After 16-24 hours, cells are harvested and plated for test compound screening. Cells may be harvested as described above. Next, cells are counted and an appropriate number of cells are spun down. Then, cells are aspirated and re-suspended in complete growth media at a concentration of 0.5×10^6 cells/mL to provide a cell suspension. Plate 20 μL of the cell suspension into a white, tissue-culture treated 384 well plate. (10,000 cells/well).
A 10 mM stock solution of test compound in dimethylsulfoxide (DMSO) was diluted to 500× the final test concentration in DMSO, then diluted to 5× the final test concentration with complete growth medium to provide the Test Compound Solution. The concentration of DMSO in the Test Compound Solution was […]. A 5 μL aliquot of Test Compound Solution was added to each test well in the 384 well plate previously plated with the cell suspension. Next, plates are spun briefly and incubated overnight at 37° C. and 5% CO2.
After 16-24 hours, the luciferase assay is performed. Plates and luciferase reagent (e.g. One-Glo® or Dual Glo®; Promega, Madison, Wis.) are brought to room temperature.

For the next experiment, the target named is T2, RORγ-LBD (Homo sapiens, UniProt P51449).
T2 construct: HIS-tagged RORγ-LBD was recombinantly expressed in SF9 cells; made in house; host or cells: SF9 cells (baculovirus); unpurified lysate
T2 sequence (P51449 269-508 limits assumed): T1 sequence (P51449 269-508 limits assumed)
The experiment can be described thus: RORγ-Ligand Binding Domain TR-FRET Assay. The experiment is classed as biochemical. The following applies: benzoxazines, Table 9. Put shortly: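 IC50 derived from the 665 nm/615 nm emission ratio after 4 h to overnight incubation. Mixture: Sf9 lysate with His-tagged LBD (~10 nM final, not purified), SRC1-2 LXXLL biotin peptide at 450 nM, 2 nM europium anti-His antibody, 60 nM APC-streptavidin; buffer 25 mM HEPES pH 7.0, 100 mM NaCl, 0.01% Tween, 0.1% BSA.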
A general note: TR-FRET usually uses a lanthanide donor and a delayed reading to cut background.

The term IC50 denotes the concentration that inhibits the measured activity by half.

A value given as a limit tells only on which side of the number the result lay.

Turning to `CCOCC1CN(S(=O)(=O)c2ccc(F)cc2)c2cc(NC(=O)c3c(F)cccc3F)ccc2O1` (centres unmarked) [VI-112], the IC50 on RORγt and at RORγ-LBD was below 15 µM each time.
For the compound `O=C(Nc1ccc2c(c1)N(S(=O)(=O)c1ccc(F)cc1)C[C@H](CO)O2)c1c(F)cccc1C(F)(F)F` [VI-82], the 50% inhibitory concentration (IC50) against RORγt and on RORγ-LBD was below 15 µM throughout.
For the compound `COCC1CN(S(=O)(=O)c2ccc(F)c(F)c2)c2cc(NC(=O)c3c(F)cccc3C(F)(F)F)ccc2O1` (centres unmarked) [VI-79], the IC50 against RORγt and at RORγ-LBD was below 15 µM throughout.
Turning to `O=C(Nc1ccc2c(c1)N(S(=O)(=O)c1ccc(F)cc1)C[C@H](CO)O2)c1c(F)cccc1F` [VI-114], the 50% inhibitory concentration (IC50) against RORγt and at RORγ-LBD was below 15 µM each time.
Take `CCN(CC)CC1CN(S(=O)(=O)c2ccc(F)cc2)c2cc(NC(=O)c3c(F)cccc3Cl)ccc2O1` (centres unmarked) [VI-38]: the half-inhibitory concentration (IC50) against RORγt and on RORγ-LBD was below 15 µM each time.
For `O=C(Nc1ccc2c(c1)N(S(=O)(=O)c1ccc(Cl)cc1)C[C@@H](CO)O2)c1c(F)cccc1C(F)(F)F` [VI-51], the IC50 on RORγt and on RORγ-LBD was below 15 µM throughout.
Regarding `COc1ccc(S(=O)(=O)N2C[C@H](CO)Oc3ccc(NC(=O)c4c(C)cccc4Cl)cc32)cn1` [VI-27], the IC50 against RORγt and on RORγ-LBD was below 15 µM throughout.
As to `Cc1nn(C(F)F)cc1S(=O)(=O)N1C[C@H](CO)Oc2ccc(NC(=O)c3c(Cl)cccc3C(F)(F)F)cc21` [VI-29], the IC50 at RORγt and at RORγ-LBD was below 15 µM in each case.
On to `CC(C)NCC1CN(S(=O)(=O)c2ccc(F)cc2)c2cc(NC(=O)c3c(F)cccc3Cl)ccc2O1` (centres unmarked) [VI-35], for which the half-maximal inhibitory concentration (IC50) on RORγt and on RORγ-LBD was below 15 µM each time.
`CC(=O)NCC1CN(S(=O)(=O)c2ccc(F)cc2)c2cc(NC(=O)c3c(F)cccc3Cl)ccc2O1` (centres unmarked) [VI-39]: the IC50 against RORγt and on RORγ-LBD was below 15 µM each time.
In the case of `O=C(Nc1ccc2c(c1)N(S(=O)(=O)c1ccc(F)cc1)CC(CC(F)(F)F)O2)c1c(Cl)cccc1Cl` (centres unmarked) [VI-13], the IC50 at RORγt and at RORγ-LBD was below 15 µM throughout.
For the compound `Cc1nn(C(F)F)cc1S(=O)(=O)N1C[C@H](C)Oc2ccc(NC(=O)c3c(Cl)cccc3C(F)(F)F)cc21` [VI-11], the IC50 at RORγt and at RORγ-LBD was below 15 µM throughout.
On to `COCC1CN(S(=O)(=O)c2ccc(F)c(F)c2)c2cc(NC(=O)c3c(F)cccc3F)ccc2O1` (centres unmarked) [VI-81], for which the IC50 against RORγt and at RORγ-LBD was below 15 µM throughout.
As to `COCC1CN(S(=O)(=O)c2ccc(Cl)cc2)c2cc(NC(=O)c3c(F)cccc3Cl)ccc2O1` (centres unmarked) [VI-96], the concentration for half-maximal inhibition (IC50) against RORγt and on RORγ-LBD was below 15 µM each time.
As for `CCOCC1CN(S(=O)(=O)c2cccc(C#N)c2)c2cc(NC(=O)c3c(F)cccc3F)ccc2O1` (centres unmarked) [VI-102], the IC50 against RORγt and at RORγ-LBD was below 15 µM each time.
Consider `O=C(Nc1ccc2c(c1)N(S(=O)(=O)c1ccc(Cl)cc1)C[C@H](CO)O2)c1c(F)cccc1C(F)(F)F` [VI-67], for which the IC50 on RORγt and on RORγ-LBD was below 15 µM each time.
As to `CCOCC1CN(S(=O)(=O)c2ccc(F)cc2)c2cc(NC(=O)c3c(Cl)cccc3C(F)(F)F)ccc2O1` (centres unmarked) [Compound 15, 2-Chloro-N-[2-ethoxymethyl-4-(4-fluoro-benzenesulfonyl)-3,4-dihydro-2H-benzo[1,4]oxazin-6-yl]-6-trifluoromethyl-benzamide], the IC50 on RORγt and at RORγ-LBD was below 15 µM in each case.
Turning to `Cc1nn(C(F)F)cc1S(=O)(=O)N1C[C@H](C)Oc2ccc(NC(=O)c3c(F)cccc3Cl)cc21` [VI-12], the IC50 at RORγt and at RORγ-LBD was below 15 µM each time.
`COCC1CN(S(=O)(=O)c2ccc(F)cc2)c2cc(NC(=O)c3c(F)cccc3Cl)c(F)cc2O1` (centres unmarked) [Compound 12, 2-Chloro-6-fluoro-N-[7-fluoro-4-(4-fluorobenzenesulfonyl)-2-methoxymethyl-3,4-dihydro-2H-benzo[1,4]oxazin-6-yl]benzamide]: the IC50 against RORγt and on RORγ-LBD was below 15 µM in each case.

These data come from patent US9512111B2, “N-sulfonylated tetrahydroquinolines and related bicyclic compounds for inhibition of RORγ activity and the treatment of disease” (Lycera Corporation, priority 2010, dated 2016).
